# Tests used:
# [1] = test system: idiopathic pulmonary fibrosis; conditions: Palmer et al. Chest 2018; cited from earlier work
# [2] = Dynamic Vapor Sorption (DVS); type: physicochemical
# Description: Moisture sorption/desorption isotherms are recorded on a DVS-1 from SURFACE MEASUREMENT SYSTEMS. Two cycles are run at 25° C., in which the Relative Humidity (RH) is stepped from 0 to 95% and back to 0%. The data is evaluated with the software DVSWin V. 2.15.
# [3] = Solubility of the different polymorphs in phosphate buffer; type: physicochemical; conditions: for solubility, concentration versus time: pH 7.4 phosphate buffer, 25° C.; for equilibrium solubility relative to Form 1: 24 hours
# Description: The solubility of the different polymorphs was determined at pH 7.4 in phosphate buffer at 25° C. Samples were analyzed as a function of time for each form to determine the equilibrium values. The residual solids from each sample were analyzed to verify that the form was unchanged during the experiment. The concentration (mg/mL) versus time data is listed below for each form: […]
# [4] = Physical stability of solid state forms, examined by FTIR; type: physicochemical; conditions: 80° C./75% RH, 1 week (7 days), open glass vials
# Description: The physical stability of Forms 1, 2, and 3 was investigated at 80° C./75% RH in order to determine if interconversion was observed. The samples were examined by FTIR after stressing 1 week in open glass vials.
Compound,rate of decline in forced vital capacity (FVC) compared with placebo [1],Reversible water uptake ([2]; 25° C.),Reversible water uptake ([2]; between 0 and 95% RH),"solubility, concentration versus time ([3]; 1 hr) [µg/mL]","solubility, concentration versus time ([3]; 2 hr) [µg/mL]","solubility, concentration versus time ([3]; 3 hr) [µg/mL]","changes in FTIR spectrum (physical stability, interconversion) [4]","24 hour solubility result, greater than Form 1 ([3]; 24 hour)",equilibrium solubility relative to Form 1 [3]
Cc1noc(-c2ccc(-c3ccc(C4(C(=O)O)CC4)cc3)cc2)c1NC(=O)O[C@H](C)c1ccccc1 [BMS-986020],significantly slowed,,,,,,,,
"COc1ccc(C(=O)NC2(C(=O)O)Cc3ccccc3C2)cc1OCCc1cccc(C)c1 [Form 1, 2-(4-methoxy-3-(3-methylphenethoxy)benzamido)-2,3-dihydro-1H-indene-2-carboxylic acid]",,less than 1%,~ −0.1 % w/w,42,41,42,unchanged FTIR,,
"COc1ccc(C(=O)NC2(C(=O)O)Cc3ccccc3C2)cc1OCCc1cccc(C)c1 [Form 2, 2-(4-methoxy-3-(3-methylphenethoxy)benzamido)-2,3-dihydro-1H-indene-2-carboxylic acid]",,,,34,39,43,unchanged FTIR,more than 30%,
"COc1ccc(C(=O)NC2(C(=O)O)Cc3ccccc3C2)cc1OCCc1cccc(C)c1 [Form 3, 2-(4-methoxy-3-(3-methylphenethoxy)benzamido)-2,3-dihydro-1H-indene-2-carboxylic acid]",,,,83,93,95,unchanged FTIR,,more than double
"COc1ccc(C(=O)NC2(C(=O)O)Cc3ccccc3C2)cc1OCCc1cccc(C)c1 [Form 4, 2-(4-methoxy-3-(3-methylphenethoxy)benzamido)-2,3-dihydro-1H-indene-2-carboxylic acid]",,,,79,89,105,,,more than double

# — patent US12691086B2, “Methods of treating systemic sclerosis and idiopathic pulmonary fibrosis” (HORIZON THERAPEUTICS IRELAND DAC, priority 2022, dated 2026)
